Where two headings read alike, the source gives them in different places.
Assays:
[1] = tested on: IL-2 secretion in human T lymphocytes; test: Inhibition of PHA/PMA-induced IL-2 secretion in human T lymphocytes; format: cell-based; details: for activation of IL-2 production: 5 micromolar, preincubation 12 hours prior to activator
Description: The following test can be used to detect whether an insulin sensitizing agent is also able to inhibit IL-2 production. Isolated human T lymphocytes or a mammalian lymphocyte cell line which expresses PPARgamma is stimulated with one or a combination of PHA/PMA, TNF-alpha, interferon-gamma or some other factor that activates induction of IL-2 gene expression. Production of IL-2 is determined by measuring the concentration of IL-2 in the supernatant from cells using Endogen kits (Wolbum), as described by Yang et al.

NF-kappaB = test: Inhibition of NF-kappaB activation, electrophoretic mobility shift assay; format: cell-based, human; details: 5 micromolar; preincubation 2 hours prior to activator
Description: The following test can be used to generically identify compounds of use in this invention based upon their ability to act as an agonist of PPAR. […] The rexinoid, LG100754 is a selective RXR/PPARgamma agonists. These compounds are tested for the ability to inhibit activity of NF-kappaB. Isolated human T lymphocytes or a mammalian cell line such as a Jurkat T cell line which expresses PPARgamma is stimulated with a concentration of one or a combination of: phytohemagglutinin/phorbol 12-myristate 13-acetate (PHA/PMA), TNF-alpha, interferon-gamma or some other factor that activates NF-kappaB. Activation of NF-kappaB is determined by electrophoretic mobility shift assay similar to that described by Rossi et al.

NFAT = test: Inhibition of NFAT activation, electrophoretic mobility shift assay; format: cell-based, human; details: 5 micromolar; preincubation 2 hours prior to activator
Description: Isolated human T lymphocytes or a mammalian cell line such as a Jurkat T cell line which expresses PPARgamma is stimulated with a concentration of one or a combination of PHA/PMA, TNF-alpha, interferon-gamma or some other factor that activates NFAT. Transcriptional activation of NFAT is determined by electrophoretic mobility shift assay similar to that described by Yang et al.

monocyte/macrophages = details: Thieringer et al.; cited from earlier work
[2] = 10 uM, preincubated with drug for 24 hr, +PHA/PMA

Which IL-2 released ([1]; 0.1 uM, preincubated with drug for 12 hr, +PHA/PMA) does the source give for CN(CCOc1ccc(CC2SC(=O)NC2=O)cc1)c1ccccn1 (centres unmarked) [rosiglitazone] here?
Its IL-2 released is 481 ± 11 c.p.m.

And the IL-2 released ([1]; 1.0 uM, preincubated with drug for 12 hr, +PHA/PMA)?
Its IL-2 released is 406 ± 12 c.p.m.

What about the IL-2 released ([1]; 10 uM, preincubated with drug for 12 hr, +PHA/PMA) of the same molecule?
The IL-2 released was 323 ± 26 c.p.m.

And the IL-2 released [1, 2]?
The IL-2 released was 112 ± 7 pg/ml supernatant.

What about the inhibition at 0.1 µM ([1]; Homo sapiens, T-lymphocyte, 0.1 uM, preincubated with drug for 12 hr, +PHA/PMA, read-out: Percent Inhibition) of the same molecule?
The inhibition at 0.1 µM was 12%.

What about the inhibition at 1 µM ([1]; Homo sapiens, T-lymphocyte, 1.0 uM, preincubated with drug for 12 hr, +PHA/PMA, read-out: Percent Inhibition) of the same molecule?
Its inhibition at 1 µM is 25%.

And the inhibition at 10 µM ([1]; Homo sapiens, T-lymphocyte, 10 uM, preincubated with drug for 12 hr, +PHA/PMA, read-out: Percent Inhibition)?
Its inhibition at 10 µM is 41%.

What about the inhibition at 10 µM ([1]; Homo sapiens, T-lymphocyte, 10 uM, preincubated with drug for 24 hr, +PHA/PMA, read-out: Percent Inhibition) of the same molecule?
The inhibition at 10 µM was 75%.

For CCCOc1cc2c(cc1\C(C)=C/C=C/C(C)=C/C(=O)O)C(C)(C)CCC2(C)C [LG100754], which “activation of NF-kappaB” value (NF-kappaB) is on record?
Its value is “inhibits the activation of NF-kappaB”.

What about the “activation of NFAT” value (NFAT) of the same molecule?
Its value is “inhibits the activation of NFAT”.

What about the “activation of IL-2 production” value [1] of the same molecule?
Its value is “inhibits the activation of IL-2 production”.

Which results are given for CCCCC[C@H](O)/C=C/[C@H]1C(=O)C=C[C@@H]1C/C=C\CCCC(=O)O [prostaglandin J2]?
activation of NF-kappaB (NF-kappaB): inhibits the activation of NF-kappaB; activation of NFAT (NFAT): inhibits the activation of NFAT; activation of IL-2 production [1]: inhibits the activation of IL-2 production

Which “effect on TNF-alpha and lipopolysaccharide production” value (monocyte/macrophages) does the source give for Cc1oc(-c2ccccc2)nc1C(O)COc1ccc(CC2SC(=O)NC2=O)cc1 (centres unmarked) [AD-5075] here?
Its value is “no effect”.

With CN(CCOc1ccc(CC2SC(=O)NC2=O)cc1)C(=O)CCCCC1CCSS1 (centres unmarked) [BP1-003] as the molecule, how does the IL-2 released [1, 2] read?
Its IL-2 released is 37 ± 7 pg/ml supernatant.

What about the “Percent Inhibition” value [1, 2] of the same molecule?
The value was 92%.
